Measurements as given in ChEMBL document CHEMBL4507328, “Data for DCP probe BAY-390” (2021).
Calls of active or inactive are those of the source. The rule behind the calls is not given here.

Legend:
[1] = biological target: Short transient receptor potential channel 5 (Homo sapiens, UniProt Q9UL62); assay: TRP selectivity screen (TRPC5)
[2] = biological target: GABA-A receptor; anion channel (Rattus norvegicus) (UniProt O09028+P15431+P18506+P18508+P19969+P20236+P23574+P23576+P28471+P28473+P30191+P62813+P63079+P63138+Q91ZM7+Q9ES14); conditions: Compound concentration 10.0 uM
[3] = biological target: D(4) dopamine receptor (Homo sapiens) (UniProt P21917); conditions: Compound concentration 10.0 uM
[4] = biological target: Sodium-dependent serotonin transporter (Homo sapiens) (UniProt P31645); conditions: Compound concentration 10.0 uM
Sequence of Sodium-dependent serotonin transporter (Homo sapiens) (P31645 whole entry, looked up): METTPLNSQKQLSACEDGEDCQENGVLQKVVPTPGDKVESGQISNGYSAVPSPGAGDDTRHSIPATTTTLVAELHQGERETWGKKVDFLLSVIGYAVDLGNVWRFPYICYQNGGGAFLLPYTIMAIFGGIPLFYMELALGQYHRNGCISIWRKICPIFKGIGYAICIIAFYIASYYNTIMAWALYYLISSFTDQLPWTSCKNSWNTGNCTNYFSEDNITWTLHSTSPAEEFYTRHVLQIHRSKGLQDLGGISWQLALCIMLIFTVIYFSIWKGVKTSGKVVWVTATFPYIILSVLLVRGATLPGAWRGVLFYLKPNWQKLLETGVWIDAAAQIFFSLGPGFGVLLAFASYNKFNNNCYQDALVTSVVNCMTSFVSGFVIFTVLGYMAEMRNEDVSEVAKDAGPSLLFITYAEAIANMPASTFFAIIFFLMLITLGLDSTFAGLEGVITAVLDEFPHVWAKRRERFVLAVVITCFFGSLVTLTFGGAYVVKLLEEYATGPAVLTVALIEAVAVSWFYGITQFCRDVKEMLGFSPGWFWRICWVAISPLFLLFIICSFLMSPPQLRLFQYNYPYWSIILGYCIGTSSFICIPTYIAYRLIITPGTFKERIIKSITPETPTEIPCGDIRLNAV

[5] = biological target: T1, 5-hydroxytryptamine receptor 1A (Homo sapiens) (UniProt P08908); conditions: Compound concentration 10.0 uM
T1 sequence (whole entry): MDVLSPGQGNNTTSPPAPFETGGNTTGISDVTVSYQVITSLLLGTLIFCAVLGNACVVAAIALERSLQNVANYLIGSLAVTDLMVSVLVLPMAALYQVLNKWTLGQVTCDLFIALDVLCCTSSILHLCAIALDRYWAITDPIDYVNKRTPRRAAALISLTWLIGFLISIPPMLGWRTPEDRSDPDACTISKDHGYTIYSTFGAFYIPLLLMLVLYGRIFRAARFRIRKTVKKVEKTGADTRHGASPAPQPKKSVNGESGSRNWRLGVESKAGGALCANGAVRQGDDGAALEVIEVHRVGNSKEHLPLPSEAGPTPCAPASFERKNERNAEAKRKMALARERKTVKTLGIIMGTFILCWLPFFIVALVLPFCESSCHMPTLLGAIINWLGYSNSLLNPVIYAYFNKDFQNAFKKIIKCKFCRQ

[6] = biological target: D(3) dopamine receptor (Homo sapiens) (UniProt P35462); conditions: Compound concentration 10.0 uM
Sequence of D(3) dopamine receptor (Homo sapiens) (P35462 whole entry): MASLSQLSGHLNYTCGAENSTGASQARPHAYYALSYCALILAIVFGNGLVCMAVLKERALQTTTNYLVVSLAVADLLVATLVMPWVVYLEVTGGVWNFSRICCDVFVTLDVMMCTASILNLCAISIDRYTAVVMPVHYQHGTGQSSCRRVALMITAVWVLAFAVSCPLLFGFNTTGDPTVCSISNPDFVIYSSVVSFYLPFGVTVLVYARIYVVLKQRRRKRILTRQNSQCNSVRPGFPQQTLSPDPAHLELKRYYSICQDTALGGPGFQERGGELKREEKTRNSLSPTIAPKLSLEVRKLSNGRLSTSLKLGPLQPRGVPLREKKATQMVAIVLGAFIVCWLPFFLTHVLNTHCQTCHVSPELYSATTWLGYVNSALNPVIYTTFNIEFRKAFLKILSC

[7] = biological target: Mu-type opioid receptor (Homo sapiens) (UniProt P35372); conditions: Compound concentration 10.0 uM
Sequence of Mu-type opioid receptor (Homo sapiens) (P35372 whole entry): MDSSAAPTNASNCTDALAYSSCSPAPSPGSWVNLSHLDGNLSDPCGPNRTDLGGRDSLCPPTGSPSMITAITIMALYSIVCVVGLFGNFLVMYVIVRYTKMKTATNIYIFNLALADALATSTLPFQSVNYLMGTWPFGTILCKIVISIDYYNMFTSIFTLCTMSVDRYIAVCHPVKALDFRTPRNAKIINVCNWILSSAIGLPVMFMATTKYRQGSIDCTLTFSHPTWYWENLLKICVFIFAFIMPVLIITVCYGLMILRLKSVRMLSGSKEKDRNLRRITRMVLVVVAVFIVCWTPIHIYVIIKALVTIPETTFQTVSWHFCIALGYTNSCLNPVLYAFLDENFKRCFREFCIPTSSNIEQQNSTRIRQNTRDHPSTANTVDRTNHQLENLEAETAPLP

[8] = biological target: 5-hydroxytryptamine receptor 3A (Homo sapiens) (UniProt P46098); conditions: Compound concentration 10.0 uM
Sequence of 5-hydroxytryptamine receptor 3A (Homo sapiens) (P46098 whole entry): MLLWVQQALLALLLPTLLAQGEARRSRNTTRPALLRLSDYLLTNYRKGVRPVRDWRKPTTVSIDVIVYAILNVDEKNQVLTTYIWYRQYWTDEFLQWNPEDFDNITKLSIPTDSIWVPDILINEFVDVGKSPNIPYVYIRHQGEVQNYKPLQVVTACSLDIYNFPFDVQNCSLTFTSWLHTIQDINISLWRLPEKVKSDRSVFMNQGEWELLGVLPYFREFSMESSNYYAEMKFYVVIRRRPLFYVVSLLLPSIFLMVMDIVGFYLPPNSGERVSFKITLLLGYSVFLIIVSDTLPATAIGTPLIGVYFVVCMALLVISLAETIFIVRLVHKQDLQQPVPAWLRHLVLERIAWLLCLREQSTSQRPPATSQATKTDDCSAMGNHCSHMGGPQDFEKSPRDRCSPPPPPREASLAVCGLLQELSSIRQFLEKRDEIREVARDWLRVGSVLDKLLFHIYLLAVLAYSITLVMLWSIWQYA

[9] = biological target: Transient receptor potential cation channel subfamily A member 1 (Homo sapiens, UniProt O75762); assay: FLIPR Ca2+ assay (human […])
[10] = biological target: Beta-3 adrenergic receptor (Homo sapiens) (UniProt P13945); conditions: Compound concentration 10.0 uM
Sequence of Beta-3 adrenergic receptor (Homo sapiens) (P13945 whole entry, looked up): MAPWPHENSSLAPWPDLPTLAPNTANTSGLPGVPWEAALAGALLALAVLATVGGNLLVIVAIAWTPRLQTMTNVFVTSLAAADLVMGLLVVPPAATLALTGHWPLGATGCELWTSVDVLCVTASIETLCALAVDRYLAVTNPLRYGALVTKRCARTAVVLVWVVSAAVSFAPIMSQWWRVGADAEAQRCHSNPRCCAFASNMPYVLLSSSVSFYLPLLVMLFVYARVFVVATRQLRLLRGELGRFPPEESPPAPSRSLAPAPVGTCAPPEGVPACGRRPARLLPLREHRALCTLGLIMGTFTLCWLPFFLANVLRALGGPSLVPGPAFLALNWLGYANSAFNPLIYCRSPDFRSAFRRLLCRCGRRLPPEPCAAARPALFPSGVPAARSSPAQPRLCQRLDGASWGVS

[11] = biological target: Histamine H1 receptor (Homo sapiens) (UniProt P35367); conditions: Compound concentration 10.0 uM
Sequence of Histamine H1 receptor (Homo sapiens) (P35367 whole entry): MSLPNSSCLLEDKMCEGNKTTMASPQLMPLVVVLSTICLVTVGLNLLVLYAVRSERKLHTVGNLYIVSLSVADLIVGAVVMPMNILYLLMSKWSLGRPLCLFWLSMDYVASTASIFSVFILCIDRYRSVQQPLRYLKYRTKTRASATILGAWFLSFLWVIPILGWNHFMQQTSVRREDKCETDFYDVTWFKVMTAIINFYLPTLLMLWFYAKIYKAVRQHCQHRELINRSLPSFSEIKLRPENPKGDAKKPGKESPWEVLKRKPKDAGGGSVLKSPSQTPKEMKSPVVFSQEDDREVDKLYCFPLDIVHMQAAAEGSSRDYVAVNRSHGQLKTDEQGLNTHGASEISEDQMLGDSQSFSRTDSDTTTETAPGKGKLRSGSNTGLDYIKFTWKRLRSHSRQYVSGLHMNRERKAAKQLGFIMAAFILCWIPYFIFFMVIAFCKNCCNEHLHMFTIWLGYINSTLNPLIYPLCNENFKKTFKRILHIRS

[12] = biological target: Transient receptor potential cation channel subfamily V member 4 (Homo sapiens, UniProt Q9HBA0); assay: TRP selectivity screen (TRPV4)
[13] = biological target: T2, 5-hydroxytryptamine receptor 2C (Homo sapiens) (UniProt P28335); conditions: Compound concentration 10.0 uM
T2 sequence (whole entry): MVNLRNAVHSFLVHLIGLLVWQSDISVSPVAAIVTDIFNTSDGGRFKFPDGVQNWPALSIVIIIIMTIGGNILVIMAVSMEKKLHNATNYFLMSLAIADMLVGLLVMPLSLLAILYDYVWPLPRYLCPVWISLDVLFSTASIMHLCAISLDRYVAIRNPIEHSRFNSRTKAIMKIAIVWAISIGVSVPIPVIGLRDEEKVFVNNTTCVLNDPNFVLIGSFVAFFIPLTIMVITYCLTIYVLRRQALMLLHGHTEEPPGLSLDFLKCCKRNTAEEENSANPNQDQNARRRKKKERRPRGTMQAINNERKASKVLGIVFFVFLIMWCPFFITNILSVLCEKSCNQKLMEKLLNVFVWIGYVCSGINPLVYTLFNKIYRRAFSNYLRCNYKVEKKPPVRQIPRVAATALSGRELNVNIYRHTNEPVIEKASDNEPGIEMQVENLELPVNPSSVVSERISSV

[14] = biological target: Beta-1 adrenergic receptor (Homo sapiens) (UniProt P08588); conditions: Compound concentration 10.0 uM
[15] = biological target: Muscarinic acetylcholine receptor M5 (Homo sapiens) (UniProt P08912); conditions: Compound concentration 10.0 uM
Sequence of Muscarinic acetylcholine receptor M5 (Homo sapiens) (P08912 whole entry): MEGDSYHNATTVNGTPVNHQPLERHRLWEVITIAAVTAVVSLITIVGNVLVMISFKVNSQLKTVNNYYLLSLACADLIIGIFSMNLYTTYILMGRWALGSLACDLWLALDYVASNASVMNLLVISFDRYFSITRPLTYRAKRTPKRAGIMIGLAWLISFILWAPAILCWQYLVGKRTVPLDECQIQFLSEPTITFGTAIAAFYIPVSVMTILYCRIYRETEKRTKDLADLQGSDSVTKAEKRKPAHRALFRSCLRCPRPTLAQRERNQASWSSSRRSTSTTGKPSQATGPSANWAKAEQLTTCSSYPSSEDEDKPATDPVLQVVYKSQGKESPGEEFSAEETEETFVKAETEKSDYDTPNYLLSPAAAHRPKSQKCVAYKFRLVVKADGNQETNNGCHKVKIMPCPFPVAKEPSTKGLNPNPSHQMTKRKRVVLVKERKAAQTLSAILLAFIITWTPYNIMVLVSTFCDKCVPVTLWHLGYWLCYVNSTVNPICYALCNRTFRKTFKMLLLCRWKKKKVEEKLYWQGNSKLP

[16] = biological target: Short transient receptor potential channel 6 (Homo sapiens, UniProt Q9Y210); assay: TRP selectivity screen (TRPC6)
Histamine H2 receptor = Histamine H2 receptor (Homo sapiens, UniProt P25021); conditions: Compound concentration 10.0 uM
[17] = biological target: T3, Muscarinic acetylcholine receptor M1 (Homo sapiens) (UniProt P11229); conditions: Compound concentration 10.0 uM
T3 sequence (whole entry): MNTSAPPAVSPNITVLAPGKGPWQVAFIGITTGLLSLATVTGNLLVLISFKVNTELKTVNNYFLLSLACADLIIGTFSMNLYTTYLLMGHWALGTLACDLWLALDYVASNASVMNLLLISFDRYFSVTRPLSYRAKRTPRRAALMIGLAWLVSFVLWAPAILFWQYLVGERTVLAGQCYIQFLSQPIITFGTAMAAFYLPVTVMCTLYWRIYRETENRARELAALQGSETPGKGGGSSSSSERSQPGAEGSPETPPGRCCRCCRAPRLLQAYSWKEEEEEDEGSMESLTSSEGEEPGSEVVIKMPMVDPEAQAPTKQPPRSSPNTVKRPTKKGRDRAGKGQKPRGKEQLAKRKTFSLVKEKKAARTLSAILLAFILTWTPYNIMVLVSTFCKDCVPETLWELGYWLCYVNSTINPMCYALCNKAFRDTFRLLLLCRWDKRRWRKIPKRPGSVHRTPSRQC

[18] = biological target: Alpha-1D adrenergic receptor (Homo sapiens) (UniProt P25100); conditions: Compound concentration 10.0 uM
Sequence of Alpha-1D adrenergic receptor (Homo sapiens) (P25100 whole entry): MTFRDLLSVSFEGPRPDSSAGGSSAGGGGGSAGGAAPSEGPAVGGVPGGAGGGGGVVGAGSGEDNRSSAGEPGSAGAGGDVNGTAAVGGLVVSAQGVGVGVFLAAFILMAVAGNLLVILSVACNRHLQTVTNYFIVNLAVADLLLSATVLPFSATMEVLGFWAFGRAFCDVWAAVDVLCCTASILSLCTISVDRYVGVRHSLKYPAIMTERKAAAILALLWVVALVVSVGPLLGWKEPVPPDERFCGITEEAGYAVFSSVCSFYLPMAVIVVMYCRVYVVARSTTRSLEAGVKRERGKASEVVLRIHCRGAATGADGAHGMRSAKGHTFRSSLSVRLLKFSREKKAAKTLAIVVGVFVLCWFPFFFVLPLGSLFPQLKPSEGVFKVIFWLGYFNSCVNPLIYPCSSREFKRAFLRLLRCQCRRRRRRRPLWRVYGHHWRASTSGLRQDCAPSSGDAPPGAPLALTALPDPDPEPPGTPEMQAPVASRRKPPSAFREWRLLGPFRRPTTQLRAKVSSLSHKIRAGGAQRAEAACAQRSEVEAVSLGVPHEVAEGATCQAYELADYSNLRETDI

[19] = biological target: T4, Alpha-1A adrenergic receptor (Homo sapiens) (UniProt P35348); conditions: Compound concentration 10.0 uM
T4 sequence (whole entry): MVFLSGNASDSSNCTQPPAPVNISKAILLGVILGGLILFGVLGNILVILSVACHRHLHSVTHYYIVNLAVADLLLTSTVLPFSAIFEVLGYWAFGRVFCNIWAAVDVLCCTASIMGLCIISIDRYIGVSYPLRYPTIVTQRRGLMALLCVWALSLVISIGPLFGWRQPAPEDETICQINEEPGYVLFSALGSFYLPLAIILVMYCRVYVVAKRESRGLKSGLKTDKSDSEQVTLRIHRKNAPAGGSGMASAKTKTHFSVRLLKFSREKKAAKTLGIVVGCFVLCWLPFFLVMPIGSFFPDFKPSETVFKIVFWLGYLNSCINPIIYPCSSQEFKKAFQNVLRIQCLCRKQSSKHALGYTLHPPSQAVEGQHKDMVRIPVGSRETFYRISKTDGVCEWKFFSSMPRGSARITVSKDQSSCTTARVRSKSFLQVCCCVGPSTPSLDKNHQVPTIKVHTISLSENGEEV

Sequence of Short transient receptor potential channel 5 (Q9UL62 whole entry): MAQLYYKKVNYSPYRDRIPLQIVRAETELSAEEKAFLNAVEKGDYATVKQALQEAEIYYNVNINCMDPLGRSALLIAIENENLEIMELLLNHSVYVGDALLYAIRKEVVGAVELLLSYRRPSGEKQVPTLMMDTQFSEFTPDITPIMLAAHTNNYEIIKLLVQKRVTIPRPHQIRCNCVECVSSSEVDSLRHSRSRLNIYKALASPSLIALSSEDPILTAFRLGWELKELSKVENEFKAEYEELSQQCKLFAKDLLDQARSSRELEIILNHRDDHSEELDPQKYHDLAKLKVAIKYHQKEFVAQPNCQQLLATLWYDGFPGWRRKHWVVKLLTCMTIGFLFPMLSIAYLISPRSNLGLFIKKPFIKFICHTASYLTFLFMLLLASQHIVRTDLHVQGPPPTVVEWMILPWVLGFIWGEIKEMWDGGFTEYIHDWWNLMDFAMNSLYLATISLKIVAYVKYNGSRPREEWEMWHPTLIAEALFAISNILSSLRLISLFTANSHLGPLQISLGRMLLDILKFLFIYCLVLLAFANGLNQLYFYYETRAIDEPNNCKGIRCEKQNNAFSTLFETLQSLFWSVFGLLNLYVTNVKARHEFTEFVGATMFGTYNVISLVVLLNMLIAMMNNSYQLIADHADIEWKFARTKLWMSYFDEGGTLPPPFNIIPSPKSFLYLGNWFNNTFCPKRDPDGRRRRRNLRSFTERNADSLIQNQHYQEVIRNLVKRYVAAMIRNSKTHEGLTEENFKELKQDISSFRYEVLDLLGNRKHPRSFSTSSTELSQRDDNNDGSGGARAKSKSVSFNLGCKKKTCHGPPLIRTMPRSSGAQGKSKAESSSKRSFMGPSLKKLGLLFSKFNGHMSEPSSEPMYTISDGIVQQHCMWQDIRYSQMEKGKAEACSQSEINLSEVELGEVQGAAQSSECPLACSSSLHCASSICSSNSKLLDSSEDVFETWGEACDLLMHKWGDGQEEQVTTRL

| Structure (SMILES) | IC50 [1] | inhibition [2] [%] | inhibition [3] [%] | inhibition [4] [%] | inhibition [5] [%] | inhibition [6] [%] | inhibition [7] [%] | inhibition [8] [%] | IC50 [9] | inhibition [10] [%] | inhibition [11] [%] | IC50 [12] | inhibition [13] [%] | inhibition [14] [%] | inhibition [15] [%] | IC50 [16] | inhibition (Histamine H2 receptor) [%] | inhibition [17] [%] | inhibition [18] [%] | inhibition [19] [%] |
| --- | --- | --- | --- | --- | --- | --- | --- | --- | --- | --- | --- | --- | --- | --- | --- | --- | --- | --- | --- | --- |
| O[C@]1(C(F)(F)F)CCCC[C@H]1Nc1ccc(F)cc1 [BAY-390] | 5.6 µM (not active) | 4.57 | -4.08 | -0.01 | -1.95 | -6.61 | 6.05 | 39 | 0.016 µM (active) | 31 | 25.7 | > 25 µM (not active) | 23.4 | 20.2 | 10.4 | > 25 µM (not active) | -1.07 | 8.3 | -2.73 | -8.22 |
| COc1cc(N[C@@H]2CCCC[C@]2(O)C(F)(F)F)ccc1F [BAY-9897] | 10 µM (not active) | 5.42 | 6.32 | 15.6 | 6.99 | -0.75 | 10.3 | 11.6 | > 25 µM (not active) | 34.2 | -8.03 | > 25 µM (not active) | -0.76 | -0.24 | -5.5 | > 30 µM (not active) | 89 | 18.5 | -4.64 | 2.69 |
